# Assay results reported in patent US12667567B2, “Method of preventing blast-induced loss of cochlear and vestibular hair cells and auditory spiral ganglion neurons” (Therapeutic Vision, Inc., priority 2024, dated 2026).
# Where “and” joins values, the source holds several entries; their conditions need not be identical. Equal values may be shown once. Entries after “also recorded” stand apart in the source; their conditions may differ.
# How the values were obtained:
# [1] = tested on: spiral ganglion neurons (SGN); assay: Blast-induced loss of spiral ganglion neurons in Rosenthal's canal; format: in vivo, rat; conditions: for mean number of SGN per section: middle of basal turn, ~25 kHz
# Procedure: (§1) Blast wave exposure. All rats were exposed to 6 blasts presented once every 5 minutes using equipment and procedures similar to those previously described. (See Manohar, S., et al., Blast-induced hearing loss suppresses hippocampal neurogenesis and disrupts long term spatial memory. Hear Res, 2020. 395: p. 108022; Stachowiak, M. K., et al., Neurogenesis and Oligodendrogenesis in a Mouse Model of Blast-Induced Traumatic Brain Injury. Neurology and Neurobiology, 2020: p. 1-14; and Newman, A. J., et al., Low-cost blast wave generator for studies of hearing loss and brain injury: blast wave effects in closed spaces. J Neurosci Methods, 2015. 242: p. 82-92.) Each rat was anesthetized with an intraperitoneal injection of ketamine (50 mg/kg) and xylazine (6 mg/kg) and stable anesthesia was maintained with supplementary half-doses of anesthetics as needed to maintain a stable anesthetic state. Each anesthetized rat was placed in a wire-mesh cage 5 cm with the snout of the rat facing the front of the blast tube opening. The average blast peak pressure level was 186 dB peak SPL (±0.8 dB, SEM, ~39.9 kPa). The intensity was selected based on our prior study in which we found no evidence of tympanic membrane or ossicular damage in rats exposed at 188 dB pSPL (Newman, A. J. et al.), consistent with an earlier report. (Roberto, M., R. P. Hamernik, and G. A. Turrentine, Damage of the auditory system associated with acute blast trauma. Ann Otol Rhinol Laryngol Suppl, 1989. 140: p. 23-34)
# (§2) Experimental groups. The rats were divided into four groups (n=6/group): (1) Blast alone (B), (2) Blast plus earplugs (BEP), (3) Blast plus HK-2 (BHK-2) and (4) Blast plus earplugs plus HK-2 (BEPHK-2). All rats had free access to water and standard lab chow except for the BHK-2 and BEPHK-2 groups that also received HK-2 as noted below.
# (§3) HK-2 synthesis and administration. HK-2 was synthesized and evaluated for purity (>99%) as described previously. (Kawada, H. and P. F. Kador, Orally Bioavailable Metal Chelators and Radical Scavengers: Multifunctional Antioxidants for the Coadjutant Treatment of Neurodegenerative Diseases. J Med Chem, 2015. 58(22): p. 8796-805; U.S. Pat. No. 8,877,766 B2) Rats in the BHK-2 group and BEPHK-2 group were fed the same standard laboratory rat chow as the other two groups, however, the chow had been treated with HK-2 as described previously. […] Based on the rat's daily food consumption, measured every 2 days together with body weight, the average oral consumption of HK-2 was ~50 mg/kg/day. […]
# [2] = tested on: vestibular hair cells in the utricle; assay: Vestibular hair cell density in macula of the utricle after blast; format: in vivo, rat
# Procedure: as §1, §2, §3
# [3] = tested on: auditory nerve fibers (ANF); assay: Blast-induced loss of auditory nerve fibers in habenula perforata; format: in vivo, rat; conditions: for mean number of ANF/habenula perforata: middle of basal turn, ~25 kHz
# Procedure: as §1, §2, §3
# [4] = tested on: vestibular hair cells in the crista of the ampulla; assay: Vestibular hair cell density in crista ampullae of semicircular canals after blast; format: in vivo, rat
# Procedure: as §1, with “The intensity was selected based on our prior study in which we found no evidence of tympanic membrane or ossicular damage in rats exposed at 188 dB pSPL (Newman, A. J. et al.), consistent with an earlier report. (Roberto, M., R. P. Hamernik, and G. A. Turrentine, Damage of the auditory system associated with acute blast trauma. Ann Otol Rhinol Laryngol Suppl, 1989. 140: p. 23-34)” left out
# HK-2 synthesis and administration. HK-2 was synthesized and evaluated for purity (>99%) as described previously. […] Based on the rat's daily food consumption, measured every 2 days together with body weight, the average oral consumption of HK-2 was ~50 mg/kg/day. […]
# [5] = tested on: noise-induced hearing loss and outer hair cell loss; conditions: 95 dB SPL octave band noise, 8 h/d for 21 days; HK-2 before, during and after the exposure; cited from earlier work
# inner hair cells (IHC) = assay: Blast-induced inner hair cell loss, cochleogram; format: in vivo, rat
# Procedure: as §1, §2
# (§4) HK-2 synthesis and administration. HK-2 was synthesized and evaluated for purity (>99%) as described previously. (Kawada, H. and P. F. Kador, Orally Bioavailable Metal Chelators and Radical Scavengers: Multifunctional Antioxidants for the Coadjutant Treatment of Neurodegenerative Diseases. J Med Chem, 2015. 58(22): p. 8796-805; U.S. Pat. No. 8,877,766 B2) Rats in the BHK-2 group and BEPHK-2 group were fed the same standard laboratory rat chow as the other two groups, however, the chow had been treated with HK-2 as described previously. (Chen, G. D., et al.; Manohar, S., et al., Combined antioxidants and anti-inflammatory therapies fail to attenuate the early and late phases of cyclodextrin-induced cochlear damage and hearing loss. Hear Res, 2022. 414: p. 108409.) HK-2 treated food was administered to rats starting 7-days prior to the blast wave exposure and continuing for 30-days following exposure. Based on the rat's daily food consumption, measured every 2 days together with body weight, the average oral consumption of HK-2 was ~50 mg/kg/day. (Id.)
# (§5) Tissue preparation. Approximately 60-days after the blast wave exposure, the rats from all four groups were deeply anesthetized with ketamine (50 mg/kg, i.p.) and xylazine (6 mg/kg, i.p.) and decapitated. The temporal bones were quickly removed. Under a dissection microscope, openings were made in the cochlear apex, round window, and the oval window. […]
# [6] = tested on: vestibular hair cells in the saccule; assay: Vestibular hair cell density in macula of the saccule after blast; format: in vivo, rat
# Procedure: as §1, §2, §4, §5
# outer hair cells (OHC) = assay: Blast-induced outer hair cell loss, cochleogram; format: in vivo, rat
# Procedure: as §1, §2, §4, §5
# [7] = BEPHK-2 group (earplugs plus HK-2)
# [8] = HK-2 oral 50 mg/kg/d, 60 d post-exposure, 50 mg/kg/day
# [9] = BHK-2 group, no blast-induced loss in this region
# [10] = BHK-2 group, 6 blasts 186 dB peak SPL, HK-2 oral 50 mg/kg/d from 7 d before to 30 d after blast, 60 d post-exposure, 50 mg/kg/day
smiles,measurement,setting,value
"O=C1CCC(=O)N1c1ncc(O)cn1 [HK-2, 1-(5-hydroxypyrimidin-2-yl) pyrrolidine-2,5-dione]",mean number of SGN per section,[1]; [7],41.8 SGN per section
same,mean number of SGN per section,"[1]; BHK-2 group, B group ~9",42.3 SGN per section
same,protection against blast-induced SGN loss (in words),[1]; [8],completely prevented; also recorded: significant protection
same,increase of SGN versus blast alone,"[1]; HK-2 treatment, 25 kHz region",~ 3.7 fold
same,"mean hair cell density, marginal region of the macula of the utricle",[2]; [7],122.8 /0.0108 mm^2
same,"mean hair cell density, striola region of the macula of the utricle",[2]; [7],111.3 /0.0108 mm^2
same,"mean hair cell density, marginal region of the macula of the utricle",[2]; [9],122.7 /0.0108 mm^2
same,"mean hair cell density, striola region of the macula of the utricle",[2]; [9],111.0 /0.0108 mm^2
same,mean number of ANF/habenula perforata,[3]; [7],82.8 ANF/habenula perforata
same,mean number of ANF/habenula perforata,"[3]; BHK-2 group, B group ~9.2",84.2 ANF/habenula perforata
same,protection against blast-induced ANF loss (in words),[3]; [8],completely prevented; also recorded: complete protection
same,increase of ANF versus blast alone,"[3]; HK-2 treatment, 25 kHz region",~ 8 fold
same,"mean hair cell density, crista of the ampulla of the three semicircular canals",[4]; [7],122.8 /0.0108 mm^2
same,"mean hair cell density, crista of the ampulla of the three semicircular canals",[4]; [9],121.8 /0.0108 mm^2
same,hearing loss and hair cell loss after noise exposure (in words),[5],significantly reduced in a dose-dependent manner
same,IHC loss,"inner hair cells (IHC); BEPHK-2 group (earplugs plus HK-2; range stated jointly with BEP group), base of the cochlea",14-19%
same,reduction of total IHC loss compared to B group,inner hair cells (IHC); [10],57% and ~ 57.3% and ~ 57%
same,mean IHC loss,"inner hair cells (IHC); BHK-2 group, middle of the cochlea",~ 20
same,mean IHC loss,"inner hair cells (IHC); BHK-2 group, near the apex",0%
same,mean IHC loss,"inner hair cells (IHC); BHK-2 group, near the base of the cochlea",~ 67%
same,"mean hair cell density, marginal region of the saccule",[6]; [7],123.0 /0.0108 mm^2
same,"mean vestibular hair cell density, striola of the saccule",[6]; [7],112.0 hair cell/0.0108 mm^2
same,"mean vestibular hair cell density, striola of the saccule","[6]; BHK-2 group, B group 71.83",102.7 hair cell/0.0108 mm^2
same,"mean hair cell density, marginal region of the saccule",[6]; [9],122.2 /0.0108 mm^2
same,protection against blast-induced saccule (striola) hair cell loss (in words),[6]; [8],completely prevented; also recorded: restored hair cell densities to normal levels; also recorded: significant protection
same,OHC loss less than in BEP group,"outer hair cells (OHC); BEPHK-2 group (earplugs plus HK-2), extreme base",about 10%
same,reduction of total OHC loss compared to B group,outer hair cells (OHC); [10],67% and ~ 67%
same,mean OHC loss,"outer hair cells (OHC); BHK-2 group, 10% location (distance from apex)",10%
same,mean OHC loss,"outer hair cells (OHC); BHK-2 group, 70% location (distance from apex)",~ 39%
same,mean OHC loss,"outer hair cells (OHC); BHK-2 group, high-frequency base of the cochlea",~ 76%
